The subject of data set [1] is animal models of ischemia/reperfusion injury. The note with it: with a sodium-hydrogen exchanger inhibitor at reperfusion; or just before reperfusion in animal models; cited from earlier work.
The subject of data set [2] is WT mice. Nature of the data set: Effect of DOX diet on heart size and function of wild type mice. Format: in vivo, mouse. The note with it: 300 mg/kg diet; 12-week-old mice; FIGS. 9 and 10. The procedure:
7-10 12-weeks old mice from each group were measured. No significance was detected at p-value setting of P<0.05.
Echocardiography were performed on 7-10 12-weeks-old male mice. No significance was detected at p-value setting of P<0.05.
Echocardiography and Electrocardiogram (ECG). Echocardiographic studies on A1-AR transgenic mice were performed using an ultrasonographic system (ACUSON Sequoia C256) as described.^34,35 […] Non-transgenic littermates served as controls and unless otherwise noted, all mice were male. Mice were anesthetized with 2.5% Avertin (10 μl/g body weight, IP, Aldrich Chemical Co) and placed in the supine position. A 14-MHz transducer was applied to the left hemithorax. Two-dimensional targeted M-mode imaging was obtained from the short-axis view at the level of the greatest left ventricular dimension at baseline. […] End diastole was determined at the maximal left ventricular diastolic dimension, and end systole was taken at the peak of posterior-wall motion. […] ECG was recorded for 2 minutes and analyzed using Char 5 software (Adinstruments). […]

Data set [3] relates to cardiac A1-AR expression (tTA transactivation). In words: Doxycycline-regulated A1-AR transgene expression (tet-off system) in A1-TG mice. The format is in vivo, mouse. An excerpt:
Transgenic mouse generation. The human A1-AR cDNA was cloned into a cardiac-specific and inducible controlled vector (TREMHC)^64 composed of a modified mouse α-myosin heavy chain minimal promoter fused with nucleotide binding sites for tetracyline transactivating factor (tTA).^33 A1-AR transgenic mice, engineered on a FVB background (PolyGene, Switzerland), were crossed with mice that expressed tTA in the heart (MHC-tTA) (FIG. 1A). In this “tet-off” inducible system, the stable tetracycline analog, doxycycline (DOX), inhibits tTA transactivation and was administered to mice at 300 mg/kg of mouse diet (Bio-Serv, NJ). Survival studies were performed using both male and female mice and found no statistical significant differences. Therefore, only male mice were used for subsequent studies. All protocols were approved by the Institutional Animal Care and Use Committee of Thomas Jefferson University.
Doxycyline-regulated A1-AR expression. The stable tetracycline analog, doxycycline (DOX), inhibits tTA transactivation. The inventors determined a minimal dose of DOX (300 mg/kg of mouse diets) that attenuated A1-AR expression, which, in turn prevented cardiomyopathy. […] To generate inducible A1-AR transgenic mice (A1-TGInd), DOX was removed when mice reached three-weeks of age. […] At six weeks of age, A1-AR protein expression in A1-TGCcon and A1-TGInd was identical (FIGS. 2B and C). […]

The subject of data set [4] is wild-type and TNF 1.6 mice. Nature of the data set: Left ventricular hemodynamics: chronotropic and functional responsiveness to adenosine analogue or AR agonists. Format: in vivo, mouse. The procedure:
FIGS. 16A-16B show the cardiac response of wild type (WT) and TNF 1.6 transgenic mice to an adenosine analogue or AR agonists. Under anesthetization, a 1.4 F micromanometer catheter (Millar Instruments) was inserted into the left ventricle through the right carotid artery. Chronotropic and functional responsiveness to adenosine analogue or AR agonists were recorded. […] Values are mean±SEM (n=5). *P<0.05 vs. age-matched WT. The graph measured the slope (in vivo chronotropic responsiveness) from baseline to 10 minutes after drug administration in wild-type and TNF 1.6 mice. Values were mean±SEM (n=5) and compared using ANOVA General Linear Model with repeated measures. *P<0.05 vs. age-matched WT in slope change. The graph in FIG. 16B measured the slope (arterial pressure or cardiac contractility) from baseline to 10 minutes after drug administration in wild-type and TNF1.6 mice. Values were mean±SEM (n=5) and compared using ANOVA General Linear Model with repeated measures. *P<0.05 vs. age-matched WT in slope change. Left Ventricular Hemodynamics Measurement. After anesthetization with 2.5% Avertin (10 μl/g body weight, IP, Aldrich Chemical Co), mice were placed in the supine position. A 1.4 F micromanometer catheter (Millar Instruments) was inserted into the left ventricle through the right carotid artery.^64,65 Left ventricular pressure and heart rate were then recorded at baseline and 10 minutes after injection of CPA (0.1 mg/kg body weight, IP, Sigma-Aldrich Co). A1 receptor-specific functional response. To determine whether the changes in A1-AR levels had functional significance in TNF 1.6 mice, the inventors determined the chronotropic response to the selective A1-AR agonist, 2-chloro-N^6-cyclopentanyladenosine (CPA).

As to `CCNC(=O)[C@H]1CC(n2cnc3c(N[C@H](CC)Cc4sccc4Cl)ccnc32)[C@H](O)[C@@H]1O` (relative stereo) [AMP 579, [1S-[1α,2β,3β,4α(S*)]]-4-[7-[[3-chloro-2-thienyl)methyl]propyl]amino]-3H-imidazo[4,5-b]pyridin-3-yl]-N-ethyl-2,3-dihydroxycyclopentanecarboxamide], the cardioprotection entry in data set [1] is “cardioprotective”.
For the compound `C[C@H]1c2cccc(O)c2C(=O)C2=C(O)[C@]3(O)C(=O)C(C(N)=O)=C(O)[C@@H](N(C)C)[C@@H]3[C@@H](O)[C@@H]21` [DOX, doxycycline], in data set [2], the “WT mouse heart size or function” value is “did not affect WT mouse heart size or function”. Besides, the “minimal dose that attenuated A1-AR expression” value in data set [3] (in turn prevented cardiomyopathy) was 300 mg/kg of mouse diets. Moreover, the transgene suppressed in data set [3] (sub-optimum DOX dose) was determined as 80%.
Regarding `OC[C@H]1O[C@@H](n2cnc3c(NC4CCCC4)nc(Cl)nc32)[C@H](O)[C@@H]1O` [CPA, 2-chloro-N^6-cyclopentanyladenosine], the “arterial pressure and cardiac contractility after injection” value in data set [4] (baseline to 10 minutes after CPA injection, FIG. 16B) is “only slightly increased arterial pressure and cardiac contractility”. Also, the “chronotropic response in TNF 1.6 mice compared with age- and gender-matched wild-type controls” value in data set [4] (baseline to 10 minutes after drug administration, n=5) is “far more robust decrease in heart rate”. Besides, the “heart rate (chronotropic response)” value in data set [4] (wild-type mice, baseline to 10 minutes after injection, CPA 0.1 mg/kg IP) was “effectively decreased heart rate”.

The record behind these values is patent publication US20100272711A1, “COMPOSITIONS AND METHODS FOR THE TREATMENT AND PREVENTION OF CARDIOVASCULAR DISEASES” (THOMAS JEFFERSON UNIVERSITY, priority 2007, published 2010).
